Measurements published in patent publication US20190160049A1, “2-OXO-1,2-DIHYDROPYRIDINE-3-CARBOXAMIDE COMPOUNDS AND THEIR USE AS DUAL INHIBITORS OF PDK1/AURA” (INTERNATIONAL SOCIETY FOR DRUG DEVELOPMENT S.R.L., priority 2016, published 2019).

Assays:
[1] = system: U87MG cells; test: U87MG cell proliferation, MTS assay; assay type: cell-based; details: 72 h
Procedure: FIG. 1 illustrates the effects of SA16 on U87MG cell proliferation of example 3 (a). U87MG cells were treated in complete medium with different concentrations of SA16 (1 nM-100 μM) for 72 h. At the end of treatment, cell proliferation was measured using the MTS assay. The data are expressed as a percentage with respect to that of untreated cells (control), which was set to 100%, and are the mean values±SEM of three independent experiments, each performed in duplicate. The significance of the differences was determined with a one-way ANOVA with Bonferroni post-test: * p<0.05, ** p<0.01, *** p<0.001 vs. control cells;
FIG. 2 illustrates the combined inhibition of PDK1 and Aurora A on U87MG cell proliferation of example 3a. U87MG cells were treated in complete medium with different concentrations of MP7, in the presence or absence of Alisertib, for 72 h. At the end of treatment, cell proliferation was measured using the MTS assay. The data are expressed as a percentage with respect to that of untreated cells (control), which was set to 100%, and are the mean values±SEM of three independent experiments, each performed in duplicate. The significance of the differences was determined with a one-way ANOVA with Bonferroni post-test: * p<0.05, *** p<0.001 vs. control cells; ## p<0.01, ### p<0.001 vs. cells treated with MP7 alone; §§ p<0.01, § § § p<0.001 vs. cells treated with Alisertib alone;
To examine the effects of SA16 on U87MG cell growth/survival, U87MG cells were incubated with different concentrations of the compound SA16 (1 nM-10 μM) for 72 h.
In parallel experiments, U87MG proliferation was assessed in the presence of a well-known PDK1 inhibitor MP7, alone or in combination with the Aurora A inhibitor, Alisertib.

[2] = system: cancer stem cell (CSC) neurospheres obtained from U87MG cells; test: CSC (GBM stem cell) proliferation, MTS assay; assay type: cell-based
Procedure: FIG. 3 illustrates the effects of SA16 on CSC proliferation of example 3b. CSCs were treated in complete neurosphere medium with different concentrations of SA16 (1 nM-100 μM) for seven days. At the end of treatment, cell proliferation was measured using the MTS assay. The data are expressed as a percentage with respect to that of untreated cells (control), which was set to 100%, and are the mean values±SEM of three independent experiments, each performed in duplicate. IC50 value after seven days of treatment were calculated from sigmoid dose-response curve;
FIG. 4 illustrates combined inhibition of PDK1 and Aurora A on CSCs proliferation of example 3b. CSCs were treated in complete medium with different concentrations of MP7, in the presence or absence of Alisertib, for seven days. At the end of treatment, cell proliferation was measured using the MTS assay.
The data are expressed as a percentage with respect to that of untreated cells (control), which was set to 100%, and are the mean values±SEM of three independent experiments, each performed in duplicate. The significance of the differences was determined with a one-way ANOVA with Bonferroni post-test: * p<0.05, *** p<0.001 vs. control cells; ## p<0.01, ### p<0.001 vs. cells treated with MP7 alone; §§ p<0.01, § § § p<0.001 vs. cells treated with Alisertib alone;
The inventors also examined the effects of SA16 compound on cancer stem cell (CSC) neurospheres obtained from U87MG cells.

[3] = system: CSC neurospheres; test: Sphere-derived cell morphology (neurosphere area, outgrowth of cellular processes); assay type: cell-based; details: seven days, SA16 10 nM, 1 μM, 10 μM
Procedure: FIG. 5 illustrates the effects of SA16 on sphere-derived cell morphology of Example 3c. CSCs were treated for seven days with complete NSC medium containing DMSO (control), or SA16 (10 nM, 1 μM, 10 μM) (A) Representative cell micrographs of control and SA16 (10 μM) after seven days of treatment are shown. The area of the culture plates occupied by the spheres (B) and the length of cellular processes (C) were scored after seven days of treatment. The counts represent the mean values±SEM of two independent experiments. The significance of differences was determined with a one-way ANOVA with Bonferroni post-test: * p<0.05, ** p<0.01, *** p<0.001 vs. control cells.
FIG. 7 illustrates the effects of MP7, Alisertib and of their combined treatment on sphere-derived cell morphology of example 3c. CSCs were treated for seven days with complete NSC medium containing DMSO (control), MP7 and/or alisertib (A) Representative cell micrographs after seven days of treatment are shown. The area of the culture plates occupied by the spheres (B) and the length of cellular processes (C) were scored after seven days of treatment. The counts represent the mean values±SEM of two independent experiments. The significance of differences was determined with a one-way ANOVA with Bonferroni post-test: * p<0.05, *** p<0.001 vs. control cells; ## p<0.01 vs. cells treated with MP7 alone; § p<0.05 vs. cells treated with Alisertib alone.
The effects of SA16 on morphology of neurospheres were evaluated by quantifying the area occupied by the cells in culture plates, as well as the outgrowth of cellular processes.
The inventors then evaluated the effects of MP7, Alisertib and of their combination on CSC differentiation. The cells were incubated with […] MP7, alone or in combination with 1.5 μM Alisertib for seven days.

[4] = target: T1, PDK1 (Homo sapiens, UniProt O15530); test: FRET-based Z'-LYTE kinase assay against PDK1; assay type: biochemical
T1 construct: purchased Invitrogen Corporation, Life Technologies
T1 sequence (O15530 1-556): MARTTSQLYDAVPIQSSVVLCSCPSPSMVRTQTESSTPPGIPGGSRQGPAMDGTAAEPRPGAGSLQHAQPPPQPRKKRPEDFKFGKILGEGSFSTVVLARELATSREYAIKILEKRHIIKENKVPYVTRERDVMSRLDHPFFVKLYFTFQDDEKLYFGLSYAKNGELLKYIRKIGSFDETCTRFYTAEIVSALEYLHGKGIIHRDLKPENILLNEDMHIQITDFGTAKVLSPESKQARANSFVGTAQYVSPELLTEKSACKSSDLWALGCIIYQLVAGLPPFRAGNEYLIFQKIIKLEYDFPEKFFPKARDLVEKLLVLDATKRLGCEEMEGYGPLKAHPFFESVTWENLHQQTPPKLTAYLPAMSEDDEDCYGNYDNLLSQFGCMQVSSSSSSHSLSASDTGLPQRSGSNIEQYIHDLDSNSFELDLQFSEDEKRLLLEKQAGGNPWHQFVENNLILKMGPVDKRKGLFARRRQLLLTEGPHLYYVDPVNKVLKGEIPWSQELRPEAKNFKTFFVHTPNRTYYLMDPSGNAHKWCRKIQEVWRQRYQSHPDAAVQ
Procedure: (§1) The compounds of Formula (I) were tested in the biological test named Kinase-specific Z′-LYTE® assay (Invitrogen Corporation, Life Technologies).

[5] = target: T2, AurA (Homo sapiens, UniProt O14965); test: FRET-based Z'-LYTE kinase assay against AurA; assay type: biochemical; details: for IC50 / inhibition at 10 µM: Z'-LYTE assay; for inhibition at 10 µM: 10μM compound
T2 construct: purchased Invitrogen Corporation, Life Technologies
T2 sequence (O14965 1-403): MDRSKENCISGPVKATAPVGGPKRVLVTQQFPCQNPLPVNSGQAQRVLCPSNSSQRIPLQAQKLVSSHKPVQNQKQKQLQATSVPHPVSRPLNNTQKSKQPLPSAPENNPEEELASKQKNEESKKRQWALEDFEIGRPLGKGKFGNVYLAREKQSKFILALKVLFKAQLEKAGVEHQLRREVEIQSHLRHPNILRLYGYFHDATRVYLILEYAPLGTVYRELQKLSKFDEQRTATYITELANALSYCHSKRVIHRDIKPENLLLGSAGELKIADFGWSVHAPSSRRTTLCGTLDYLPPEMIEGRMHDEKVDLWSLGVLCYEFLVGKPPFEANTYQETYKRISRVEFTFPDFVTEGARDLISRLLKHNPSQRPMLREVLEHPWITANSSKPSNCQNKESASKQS
Procedure: as §1

## COc1cc(Nc2ncc3c(n2)-c2ccc(Cl)cc2C(c2c(F)cccc2OC)=NC3)ccc1C(=O)O [Alisertib, 4-{[9-Chloro-7-(2-fluoro-6-methoxyphenyl)-5H-pyrimido[5,4-d][2]benzazepin-2-yl]amino}-2-methoxybenzoic acid]
[1]
  effect on U87MG cell proliferation (in words): slightly reduced U87MG cell proliferation
[2]; seven days
  effect on CSC proliferation (in words): anti-proliferative effects on CSCs, in a concentration-dependent manner
[3]; 1.5 μM Alisertib
  outgrowth of cellular processes: modest but significant outgrowth of cellular processes
[3]; 2.5 PIM MP7, 1.5 μM Alisertib
  area occupied by the neurospheres: reduction in the area occupied by the neurospheres

## Cc1ccc(C(=O)N[C@@H](C(=O)Nc2ccc3c(c2)/C(=C/c2cnc[nH]2)C(=O)N3)c2ccccc2)c(=O)n1Cc1ccc(F)c(F)c1 [Compound V18, (R,Z)—N-(2-((3-((1H-imidazol-5-yl)methylene)-2-oxoindolin-5-yl)amino)-2-oxo-1-phenylethyl)-1-(3,4-difluorobenzyl)-6-methyl-2-oxo-1,2-dihydropyridine-3-carboxamide]
[4]; Z'-LYTE assay
  IC50: 148 nM
[5]
  IC50: 69.8 nM

## Cc1c(Br)cc(C(=O)N[C@@H](C(=O)Nc2ccc3c(c2)/C(=C/c2cnc[nH]2)C(=O)N3)c2ccccc2)c(=O)n1Cc1ccc(F)c(F)c1 [Compound V118, (R,Z)—N-(2-((3-((1H-imidazol-5-yl)methylene)-2-oxoindolin-5-yl)amino)-2-oxo-1-phenylethyl)-5-bromo-1-(3,4-difluorobenzyl)-6-methyl-2-oxo-1,2-dihydropyridine-3-carboxamide]
[4]; Z'-LYTE assay
  IC50: 475 nM
[5]
  IC50: 118 nM

## Cc1c(Br)cc(C(=O)NCC(=O)Nc2ccc3c(c2)/C(=C/c2cnc[nH]2)C(=O)N3)c(=O)n1Cc1ccc(F)c(F)c1 [Compound V123, (Z)—N-(2-((3-((1H-imidazol-5-yl)methylene)-2-oxoindolin-5-yl)amino)-2-oxoethyl)-5-bromo-1-(3,4-difluorobenzyl)-6-methyl-2-oxo-1,2-dihydropyridine-3-carboxamide]
[4]; Z'-LYTE assay
  IC50: 134 nM
[5]
  inhibition at 10 µM: 52%

## O=C(CCNC(=O)c1cccn(Cc2ccc(F)c(F)c2)c1=O)Nc1ccc2c(c1)/C(=C/c1cnc[nH]1)C(=O)N2 [DD21, (Z)—N-(3-((3-((1H-imidazol-5-yl)methylene)-2-oxoindolin-5-yl)amino)-3-oxopropyl)-1-(3,4-difluorobenzyl)-2-oxo-1,2-dihydropyridine-3-carboxamide]
[4]; Z'-LYTE assay
  IC50: 103 nM
[5]
  IC50: 2470 nM

## O=C(CCCNC(=O)c1cccn(Cc2ccc(F)c(F)c2)c1=O)Nc1ccc2c(c1)/C(=C/c1cnc[nH]1)C(=O)N2 [DF8, (Z)—N-(4-((3-((1H-imidazol-5-yl)methylene)-2-oxoindolin-5-yl)amino)-4-oxobutyl)-1-(3,4-difluorobenzyl)-2-oxo-1,2-dihydropyridine-3-carboxamide]
[4]
  inhibition of PDK1 kinase (in words): best effects
[4]; Z'-LYTE assay
  IC50: 245 nM
[5]
  inhibition of AurA kinase (in words): best effects
  IC50: 611 nM

## O=C(CNC(=O)c1cccn(Cc2ccc(F)c(F)c2)c1=O)Nc1ccc2c(c1)/C(=C/c1cnc[nH]1)C(=O)N2 [IB35, (Z)—N-(2-((3-((1H-imidazol-5-yl)methylene)-2-oxoindolin-5-yl)amino)-2-oxoethyl)-1-(3,4-difluorobenzyl)-2-oxo-1,2-dihydro pyridine-3-carboxamide]
[5]
  IC50: 289 nM

## O=C1Nc2ccc(NC(=O)[C@H](NC(=O)c3cccn(Cc4ccc(F)c(F)c4)c3=O)c3ccccc3)cc2/C1=C/c1cnc[nH]1 [SA16, (Z)—(R)—N-(2-((3-((1H-imidazol-5-yl)methylene)-2-oxoindolin-5-yl)amino)-2-oxo-1-phenylethyl)-1-(3,4-difluorobenzyl)-2-oxo-1,2-dihydropyridine-3-carboxamide]
[5]
  IC50: 35 nM
[1]; 1 nM-10 μM
  maximal percentage of inhibition of U87MG cell proliferation: 49.4±2%
[2]; Homo sapiens, U-87 MG, 168 h, seven days of treatment, read-out: IC50 of inhibition of GSC proliferation
  IC50: 8.33 ± 0.78 nM
[2]; seven days of treatment
  maximal percentage of inhibition of GSC proliferation: 80.0±2.0%

## Cc1ccc(C(=O)NCC(=O)Nc2ccc3c(c2)/C(=C/c2cnc[nH]2)C(=O)N3)c(=O)n1Cc1ccc(F)c(F)c1 [SST200, (Z)—N-(2-((3-((1H-imidazol-5-yl)methylene)-2-oxoindolin-5-yl)amino)-2-oxoethyl)-1-(3,4-difluorobenzyl)-6-methyl-2-oxo-1,2-dihydropyridine-3-carboxamide]
[4]; Z'-LYTE assay
  IC50: 103 nM
[5]
  IC50: 193 nM

## O=C(CNC(=O)c1cc2cccnc2n(Cc2ccc(F)c(F)c2)c1=O)Nc1ccc2c(c1)/C(=C/c1cnc[nH]1)C(=O)N2 [SST201, (Z)—N-(2-((3-((1H-imidazol-5-yl)methylene)-2-oxoindolin-5-yl)amino)-2-oxoethyl)-1-(3,4-difluorobenzyl)-2-oxo-1,2-dihydro-1,8-naphthyridine-3-carboxamide]
[4]; 10μM compound, Z'-LYTE assay
  inhibition at 10 µM: 35%
[5]
  inhibition at 10 µM: 43%
